Data from article PMC3961628 (American Journal of Cardiovascular Drugs, 2013).
Read-outs that look alike come from different tables or passages of the source.

Key:
[1] = cited from earlier work
[2] = single oral 20-mg radiolabeled dose; bile collected 3–8 h after dose; cited from earlier work
[3] = format: in vivo, healthy human subjects; details: for AUC(0-t) / AUC(0-inf) / Cmax: geometric mean (% CV); for AUC(0-inf): AUCINF; for Cmax: C max; for half-life: T ½
[4] = Stability of apixaban in human plasma; format: in vitro ADME; details: at −20 °C
[5] = Safety assessments; format: in vivo, healthy human subjects
[6] = tested on: major uptake transporters; details: cited from earlier work
[7] = cited from earlier work; remark: listed apart in the source
[8] = BDC dogs, cited from earlier work
[9] = BDC rats, intravenous [14C]apixaban; cited from earlier work
[10] = apixaban 2.5 mg solution released in the ascending colon
[11] = apixaban 2.5 mg solution released in the distal small bowel
[12] = human, plasma, oral, 20 mg, Treatment A: apixaban 20 mg alone, n = 18
[13] = human, plasma, oral, Treatment B: apixaban 20 mg + activated charcoal 2 h after apixaban, n = 14
[14] = human, plasma, oral, Treatment C: apixaban 20 mg + activated charcoal 6 h after apixaban, n = 17

T ½ ([3]; Treatment A: apixaban 20 mg alone, n = 18, mean (SD)): 13.4 (5.1) h
T max ([3]; Treatment C: apixaban 20 mg + activated charcoal 6 h after apixaban, n = 17, median (range)): 2.5 (1.5–4.0) h
Decrease in apixaban exposure (AUCINF) vs apixaban alone ([3]; activated charcoal administered at 2 h post-dose): 50%
Decrease in apixaban exposure (AUCINF) vs apixaban alone ([3]; activated charcoal administered at 6 h post-dose): 28%
Effect of activated charcoal on C max or T max of apixaban ([3]; charcoal at 2 or 6 h post-dose): no effect
Tmax ([3]; human, plasma, oral, 20 mg): 2.5 h
AUC(0-t) [3, 12]: 4080 ng·h/mL
AUC(0-inf) [3, 12]: 4180 ng·h/mL
Cmax [3, 12]: 380 ng/mL
AUC(0-t) ([3]; human, plasma, oral, Treatment B: apixaban 20 mg + activated charcoal 50 g 2 h after apixaban, n = 14): 2010 ng·h/mL
AUC(0-t) ([3]; human, plasma, oral, Treatment C: apixaban 20 mg + activated charcoal 50 g 6 h after apixaban, n = 17): 2950 ng·h/mL
AUC(0-inf) [3, 13]: 2030 ng·h/mL
AUC(0-inf) [3, 14]: 2980 ng·h/mL
Cmax [3, 13]: 366 ng/mL
Cmax [3, 14]: 383 ng/mL
half-life ([3]; human, plasma, oral, Treatment B: apixaban 20 mg + activated charcoal 2 h after apixaban, n = 14, mean (SD)): 5.3 h
half-life ([3]; human, plasma, oral, Treatment C: apixaban 20 mg + activated charcoal 6 h after apixaban, n = 17, mean (SD)): 4.9 h
Time for which mean plasma concentrations were quantifiable ([3]; single oral 20-mg dose without activated charcoal, LLOQ 1 ng/mL): up to 72 h
Stability in human plasma [4]: at least 864 days
SMILES: COc1ccc(-n2nc(C(N)=O)c3c2C(=O)N(c2ccc(N4CCCCC4=O)cc2)CC3)cc1 [apixaban, 1-(4-methoxyphenyl)-7-oxo-6-(4-(2-oxopiperidin-1-yl)phenyl)-4,5,6,7-tetrahydro-1H-pyrazolo[3,4-c]pyridine-3-carboxamide]
AUC(0–T) lower than with oral administration [1, 10]: 84%
C max lower than with oral administration [1, 10]: 90%
AUC(0–T) lower than with oral administration [1, 11]: approximately 60%
C max lower than with oral administration [1, 11]: approximately 60%
Biliary excretion, share of total recovered radioactivity [2]: less than 3%
Proportion of subjects reporting adverse events ([5]; apixaban 20 mg alone): 16.7%
Tolerability ([5]; healthy subjects, single 20-mg doses): well tolerated
Substrate status for major uptake transporters [6]: not a substrate
Oral bioavailability ([7]; background statement): approximately 50%
Effect of food and changes in gastric pH on apixaban exposure [7]: no clinically relevant effect
Terminal half-life (T ½) [7]: approximately 12 h
Time to peak plasma concentration (C max) ([7]; oral administration, immediate-release tablet, background statement): approximately 3 h
Dose found in feces ([8]; intravenous [14C]apixaban): 40–50 % of the dose
Effect of activated charcoal on fecal recovery and apparent systemic clearance [8]: increased fecal recovery and apparent systemic clearance
Dose found in feces [9]: 20–30 % of the dose
